Source: patent EP1976513B1 (priority 2006, dated 2007)
Like-named read-outs stand apart in the source and are kept apart here.

What was measured:
[1] = target: human serotonin reuptake transporter (Homo sapiens, UniProt P31645); experiment: cell-based; conditions: recombinant human serotonin transporter (SERT)
[2] = target: T1, 5-HT Transporter (SERT) Sites in Mouse Brain (Mus musculus, UniProt Q60857); experiment: Ex vivo [3H] citalopram binding after oral dosing; design: species or system C57BL/6 mice; conditions: for % Transporter Occupancy, SERT: 60 minutes after treatment, vs vehicle; for Mean Specific Binding (dpm) ± S.E.M., SERT: mice sacrificed 60 minutes after treatment, cortex
T1 construct: Whole brains were removed and cortex and striata dissected out; from tissue; host or cells: C57BL/6 mouse frontal cortex homogenate

[3] = target: T2, DA Transporter (DAT) Sites in Mouse Brain (Mus musculus, UniProt Q61327); experiment: Ex vivo [3H] WIN 35428 binding after oral dosing; design: species or system C57BL/6 mice; conditions: for % Transporter Occupancy, DAT: 60 minutes after treatment, vs vehicle; for Mean Specific Binding (dpm) ± S.E.M., DAT: mice sacrificed 60 minutes after treatment, striatum
T2 construct: Striatum was used to determine occupancy of DA transporter sites; from tissue; host or cells: C57BL/6 mouse striatum homogenate

mice = experiment: Mouse locomotor activity; format: in vivo; conditions: PO
Method: In order to ensure effects of the compounds on immobility time were not related to a general stimulant effect on baseline motor activity, locomotor activity was assessed using photocell monitored cages (Med-Associates Inc.). Each test chamber was equipped with infrared photocell beams to measure movement of the animals. Horizontal and vertical activity were measured
Rats or mice were pretreated with vehicle or test compounds and placed back in home cage, following which they will be individually placed in locomotor cages and activity was monitored in 5 minute intervals for up to 60 min.
Data were analyzed by one way analysis of variance (ANOVA) followed by post-hoc comparisons where appropriate. An effect was considered significant if p < 0.05. Data are represented as the mean and standard error to the mean (s.e.m).

[4] = target: Norepinephrine Transporter (NET) Sites in Mouse Brain (Mus musculus, UniProt O55192); conditions: PO; for % Transporter Occupancy, NET: 60 minutes after treatment, vs vehicle; for Mean Specific Binding (dpm) ± S.E.M., NET: mice sacrificed 60 minutes after treatment, cortex
[5] = target: T3, human dopamine reuptake transporter (Homo sapiens, UniProt Q01959); experiment: cell-based; conditions: recombinant human dopamine transporter (DAT); read-out: Human IC50 (nM) hDAT
T3 construct: expressed in transfected cells; host or cells: CHO-K1 or HEK293

[6] = read-out: Human IC50 (nM) hSERT

Sequence of human serotonin reuptake transporter (P31645 whole entry): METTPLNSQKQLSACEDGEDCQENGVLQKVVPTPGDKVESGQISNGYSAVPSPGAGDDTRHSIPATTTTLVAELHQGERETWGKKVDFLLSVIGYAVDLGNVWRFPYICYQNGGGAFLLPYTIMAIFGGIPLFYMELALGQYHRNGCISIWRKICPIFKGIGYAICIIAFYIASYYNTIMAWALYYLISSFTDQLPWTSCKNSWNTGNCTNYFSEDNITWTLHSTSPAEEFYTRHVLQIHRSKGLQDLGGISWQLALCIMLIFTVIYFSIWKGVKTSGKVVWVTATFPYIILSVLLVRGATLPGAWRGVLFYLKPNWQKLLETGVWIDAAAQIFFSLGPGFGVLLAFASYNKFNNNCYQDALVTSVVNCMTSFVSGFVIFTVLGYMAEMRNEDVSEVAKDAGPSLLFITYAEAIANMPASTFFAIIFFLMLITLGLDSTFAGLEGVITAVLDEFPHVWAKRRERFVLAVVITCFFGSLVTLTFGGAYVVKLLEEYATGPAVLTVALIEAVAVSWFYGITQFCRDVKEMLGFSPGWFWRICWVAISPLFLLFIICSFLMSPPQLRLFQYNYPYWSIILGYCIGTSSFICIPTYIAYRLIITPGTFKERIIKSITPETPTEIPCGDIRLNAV
T2 sequence (Q61327 whole entry): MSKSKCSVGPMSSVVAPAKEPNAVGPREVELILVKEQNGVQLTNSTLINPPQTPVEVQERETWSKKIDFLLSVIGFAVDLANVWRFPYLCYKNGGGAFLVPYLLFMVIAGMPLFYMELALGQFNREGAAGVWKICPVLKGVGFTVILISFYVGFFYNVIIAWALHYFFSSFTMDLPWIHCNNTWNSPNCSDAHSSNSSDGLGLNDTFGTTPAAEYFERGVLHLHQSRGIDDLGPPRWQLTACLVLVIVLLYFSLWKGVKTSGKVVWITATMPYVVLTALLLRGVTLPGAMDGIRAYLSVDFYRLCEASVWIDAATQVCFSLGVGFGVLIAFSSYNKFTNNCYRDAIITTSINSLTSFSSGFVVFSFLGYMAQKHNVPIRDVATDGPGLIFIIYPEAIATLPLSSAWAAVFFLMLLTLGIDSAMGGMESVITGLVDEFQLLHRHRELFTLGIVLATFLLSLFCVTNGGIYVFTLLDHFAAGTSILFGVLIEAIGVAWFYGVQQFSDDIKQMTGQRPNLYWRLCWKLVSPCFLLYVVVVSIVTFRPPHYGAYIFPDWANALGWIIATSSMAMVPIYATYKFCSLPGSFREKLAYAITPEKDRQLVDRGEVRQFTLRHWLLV
T1 sequence (Q60857 whole entry): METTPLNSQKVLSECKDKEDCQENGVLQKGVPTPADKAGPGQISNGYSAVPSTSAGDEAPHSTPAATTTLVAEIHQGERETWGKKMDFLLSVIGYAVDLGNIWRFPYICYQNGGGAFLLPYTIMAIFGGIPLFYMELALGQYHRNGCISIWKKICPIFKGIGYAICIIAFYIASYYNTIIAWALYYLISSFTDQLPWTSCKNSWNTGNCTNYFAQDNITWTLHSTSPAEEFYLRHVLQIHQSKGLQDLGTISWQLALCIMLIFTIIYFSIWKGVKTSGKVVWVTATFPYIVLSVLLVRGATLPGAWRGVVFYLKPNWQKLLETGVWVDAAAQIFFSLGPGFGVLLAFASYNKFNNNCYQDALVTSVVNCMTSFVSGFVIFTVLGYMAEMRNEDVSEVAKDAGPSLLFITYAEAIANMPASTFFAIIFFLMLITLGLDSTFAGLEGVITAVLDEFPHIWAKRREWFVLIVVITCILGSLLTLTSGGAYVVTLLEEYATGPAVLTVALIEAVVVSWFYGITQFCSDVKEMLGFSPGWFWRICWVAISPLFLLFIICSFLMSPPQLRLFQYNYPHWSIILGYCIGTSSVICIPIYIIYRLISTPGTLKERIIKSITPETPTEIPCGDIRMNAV
T3 sequence (Q01959 whole entry): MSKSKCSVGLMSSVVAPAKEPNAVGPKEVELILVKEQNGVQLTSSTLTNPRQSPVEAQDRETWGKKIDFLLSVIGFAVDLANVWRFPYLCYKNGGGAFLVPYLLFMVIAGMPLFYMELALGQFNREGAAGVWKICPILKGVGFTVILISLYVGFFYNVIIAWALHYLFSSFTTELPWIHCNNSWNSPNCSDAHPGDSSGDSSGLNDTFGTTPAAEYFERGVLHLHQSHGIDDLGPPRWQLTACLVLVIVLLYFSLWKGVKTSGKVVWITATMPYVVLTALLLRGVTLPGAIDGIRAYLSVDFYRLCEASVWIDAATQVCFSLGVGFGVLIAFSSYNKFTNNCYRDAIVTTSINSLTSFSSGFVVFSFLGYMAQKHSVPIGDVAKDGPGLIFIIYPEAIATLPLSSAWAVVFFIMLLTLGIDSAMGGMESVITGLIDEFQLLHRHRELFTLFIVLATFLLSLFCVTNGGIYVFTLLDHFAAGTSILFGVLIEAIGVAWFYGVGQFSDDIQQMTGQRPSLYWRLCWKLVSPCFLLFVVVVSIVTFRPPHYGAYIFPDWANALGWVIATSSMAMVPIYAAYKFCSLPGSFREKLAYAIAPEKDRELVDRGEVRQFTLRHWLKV
Sequence of Norepinephrine Transporter (NET) Sites in Mouse Brain (O55192 whole entry): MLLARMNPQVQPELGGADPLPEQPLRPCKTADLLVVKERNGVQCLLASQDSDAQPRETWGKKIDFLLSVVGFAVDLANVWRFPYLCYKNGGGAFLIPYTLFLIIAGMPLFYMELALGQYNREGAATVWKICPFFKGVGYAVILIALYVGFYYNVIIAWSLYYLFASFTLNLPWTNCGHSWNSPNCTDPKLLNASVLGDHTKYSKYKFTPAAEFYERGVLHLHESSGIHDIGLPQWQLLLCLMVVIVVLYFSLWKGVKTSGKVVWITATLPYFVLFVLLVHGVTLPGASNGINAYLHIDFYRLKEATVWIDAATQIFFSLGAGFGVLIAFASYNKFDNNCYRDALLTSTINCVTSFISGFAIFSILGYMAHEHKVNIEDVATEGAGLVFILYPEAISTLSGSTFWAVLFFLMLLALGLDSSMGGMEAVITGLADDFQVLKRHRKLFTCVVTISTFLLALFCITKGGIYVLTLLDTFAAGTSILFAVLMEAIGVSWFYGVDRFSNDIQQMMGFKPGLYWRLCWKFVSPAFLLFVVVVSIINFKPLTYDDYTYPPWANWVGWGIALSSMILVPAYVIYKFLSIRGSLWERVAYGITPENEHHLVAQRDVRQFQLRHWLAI

`CNCC1(c2ccc(Cl)c(Cl)c2)CCC(C)(O)CC1` (stereo not shown) [Compound 276, 4-(3,4-dichlorophenyl)-1-methyl-4-((methylamino)methyl)cyclohexanol] was tested, and the IC50 [1, 6] was 210 nM, the “% Transporter Occupancy, SERT” value ([2]; 1 mg/kg) was 12% and the “Mean Specific Binding (dpm) ± S.E.M., SERT” value (from here on “Mean Specific Binding … SERT”) ([2]; 1 mg/kg) was 3743 ± 199 dpm. For the same compound, the “% Transporter Occupancy, SERT” value ([2]; 3 mg/kg) was 14%, the “Mean Specific Binding … SERT” value ([2]; 3 mg/kg) was 3685 ± 292 dpm and the “% Transporter Occupancy, SERT” value ([2]; 10 mg/kg) was 28%. For the same compound, the “Mean Specific Binding … SERT” value ([2]; 10 mg/kg) was 3092 ± 207 dpm, the “% Transporter Occupancy, SERT” value ([2]; 30 mg/kg) was 64% and the “Mean Specific Binding … SERT” value ([2]; 30 mg/kg) was 1558 ± 169 dpm. For the same compound, the “% Transporter Occupancy, DAT” value ([3]; 1 mg/kg) was -21%, the “% Transporter Occupancy, DAT” value ([3]; 3 mg/kg) was -9% and the “Mean Specific Binding (dpm) ± S.E.M., DAT” value (from here on “Mean Specific Binding … DAT”) ([3]; 3 mg/kg) was 16312 ± 2396 dpm. The “% Transporter Occupancy, DAT” value ([3]; 10 mg/kg) was -6%, the “Mean Specific Binding … DAT” value ([3]; 10 mg/kg) was 15879 ± 2265 dpm and the “% Transporter Occupancy, DAT” value ([3]; 30 mg/kg) was 31%. The “Mean Specific Binding … DAT” value ([3]; 30 mg/kg) was 10397 ± 931 dpm, the “Mouse Locomotor Activity Total Distance Traveled ± S.E.M.” value (mice; 3 mg/kg) was 625.9 ± 47.5 and the “Mouse Locomotor Activity Total Distance Traveled ± S.E.M.” value (mice; 10 mg/kg) was 382.4 ± 63.4. The “Mouse Locomotor Activity Total Distance Traveled ± S.E.M.” value (mice; 30 mg/kg) was 607.8 ± 57.8, the “% Transporter Occupancy, NET” value ([4]; 1 mg/kg) was -4% and the “Mean Specific Binding (dpm) ± S.E.M., NET” value (“Mean Specific Binding … NET” below) ([4]; 1 mg/kg) was 1602 ± 51 dpm. For the same compound, the “% Transporter Occupancy, NET” value ([4]; 3 mg/kg) was -6%, the “Mean Specific Binding … NET” value ([4]; 3 mg/kg) was 1631 ± 92 dpm and the “% Transporter Occupancy, NET” value ([4]; 10 mg/kg) was -1%. The “Mean Specific Binding … NET” value ([4]; 10 mg/kg) was 1553 ± 27 dpm, the “% Transporter Occupancy, NET” value ([4]; 30 mg/kg) was 26% and the “Mean Specific Binding … NET” value ([4]; 30 mg/kg) was 1138 ± 59 dpm.
In the case of `NCC1(c2ccc3ccccc3c2)CCC(Cl)CC1` (stereo not shown) [Compound 211, (4-chloro-1-(naphthalen-2-yl)cyclohexyl)methanamine], the IC50 [1, 6] is reported as 55 nM and the IC50 [5] is reported as 195 nM.
`NCC1(c2ccc3ccccc3c2)CCC(O)CC1` (stereo not shown) [Compound 207, 4-(aminomethyl)-4-(naphthalen-2-yl)cyclohexanol] showed an IC50 [1, 6] of 142 nM and an IC50 [5] of 1020 nM.
For `CN(C)CC1(c2ccc3ccccc3c2)CCC(O)(CF)CC1` (stereo not shown) [Compound 244, 4-((dimethylamino)methyl)-1-(fluoromethyl)-4-(naphthalen-2-yl)cyclohexanol], the IC50 [1, 6] was 14 nM and the IC50 [5] was 334 nM.
Work on `CN(C)CC1(c2ccc3c(c2)OCO3)CCC(C)(O)CC1` (stereo not shown) [Compound 242, 4-(benzo[d][1,3]dioxol-5-yl)-4-((dimethylamino)methyl)-1-methylcyclohexanol] yielded an IC50 [1, 6] of 7660 nM and an IC50 [5] of over 10000 nM.
`NCC1(c2ccc3ccccc3c2)CCC(F)CC1` (stereo not shown) [Compound 212, (4-fluoro-1-(naphthalen-2-yl)cyclohexyl)methanamine] was tested, and the IC50 [1, 6] was 91 nM and the IC50 [5] was 75 nM.
With `CNCC1(c2ccc(Cl)cc2Cl)CCCCC1` [Compound 65, 1-(1-(2,4-dichlorophenyl)cyclohexyl)-N-methylmethanamine] the IC50 ([1]; Human IC50 (nM) hSERT) was 1620 nM and the IC50 [5] was 1940 nM.
For `NCC1(c2ccc3cc(F)ccc3c2)CCCCC1` [Compound 39, (1-(6-fluoronaphthalen-2-yl)cyclohexyl)methanamine], the IC50 [1, 6] was 295 nM and the IC50 [5] was 2240 nM.
For `CNC(=O)[C@]1(c2ccc3ccccc3c2)CCCC[C@H]1O` (relative stereo) [Compound 301, trans-2-hydroxy-N-methyl-1-(naphthalen-2-yl)cyclohexanecarboxamide], the IC50 [1, 6] was over 10000 nM and the IC50 [5] was 8780 nM.
`NCC1(c2ccc3c(c2)OCO3)CCC(O)CC1` (stereo not shown) [Compound 214, 4-(aminomethyl)-4-(benzo[d][1,3]dioxol-5-yl)cyclohexanol] was tested, and the IC50 [1, 6] was over 10000 nM and the IC50 [5] was over 10000 nM.
`OC1Cc2ccccc2C1NCC1(c2ccc(Cl)c(Cl)c2)CCCCC1` (racemic) [Compound 113, 1-((1-(3,4-dichlorophenyl)cyclohexyl)methylamino)-2,3-dihydro-1H-inden-2-ol] showed an IC50 [1, 6] of 2570 nM and an IC50 [5] of 285 nM.
`NCC1(c2ccc3ccccc3c2)CCC(O)(CF)CC1` (stereo not shown) [Compound 217, 4-(aminomethyl)-1-(fluoromethyl)-4-(naphthalen-2-yl)cyclohexanol] showed an IC50 [1, 6] of 47 nM and an IC50 [5] of 1970 nM.
For `CNCC1(c2ccc(Cl)c(Cl)c2)CCC(C)(O)CC1` (stereo not shown) [Compound 273, 4-(3,4-dichlorophenyl)-1-methyl-4-((methylamino)methyl)cyclohexanol], the IC50 [1, 6] was 830 nM and the IC50 [5] was 528 nM.
`CC(N(C)C)C1(c2ccc3ccccc3c2)CCC(C)(O)CC1` (single isomer, unassigned) [234 E1, 4-(1-(dimethylamino)ethyl)-1-methyl-4-(naphthalen-2-yl)cyclohexanol] gave an IC50 [1, 6] of 3380 nM and an IC50 [5] of 346 nM.
`NCC1(c2ccc3ccccc3c2)CCC(O)CC1` (stereo not shown) [Compound 208, 4-(aminomethyl)-4-(naphthalen-2-yl)cyclohexanol] showed an IC50 [1, 6] of 1990 nM and an IC50 [5] of 7670 nM.
